Experimental findings from patent US11466028B2, “Fused 1,4-oxazepines as BET protein degraders” (THE REGENTS OF THE UNIVERSITY OF MICHIGAN, priority 2016, dated 2022) are described below.

Assay type in all cases: cell-based
For one test, the system named is MOLM-13. The test can be described thus: CellTiter-Glo cell growth inhibition, MOLM-13. Particulars: Homo sapiens, MOLM-13, 96 h, 4 days, Table 4, read-out: MOLM-13 IC50. How it is done: (§1) Cell growth inhibitory activity of representative Compounds of the Disclosure was determined using the CellTiter-Glo® Luminescent Cell Viability Assay. Cells were seeded in 384-well white opaque cell culture plates at a density of 2,000 cells/well with serially diluted compounds and incubated at 37° C. in an atmosphere of 95% air and 5% CO2 for 4 days. Cell viability was determined using the CellTiter-Glo® Luminescent Cell Viability Assay Kit (Promega, Madison, Wis.) according to the manufacture's instruction. Briefly, a volume of CellTiter-Glo® Reagent equal to the volume of cell culture medium was added to each well, and then the plates were incubated at room temperature for 10-20 minutes. The luminescent signal was measured using a Tecan Infinite M1000 multimode microplate reader (Tecan, Morrisville, N.C.). The half maximal inhibitory concentration (IC50) was calculated using the GraphPad Prism 5 software (GraphPad Software, La Jolla, Calif.).
(§2) Cpd. Nos. 18 and 19 were tested in various leukemia cell lines using the CellTiter-Glo® Luminescent Cell Viability Assay as described in Example 35.

For a further test, the system named is MDA-MB-231. The test can be described thus: CellTiter-Glo cell growth inhibition, MDA-MB-231. The note with it: Homo sapiens, MDA-MB-231, 96 h, 4 days, Table 4. The protocol:
as §1

For a further test, the system named is RS4;11. The test can be described thus: CellTiter-Glo cell growth inhibition, RS4;11. The note with it: Homo sapiens, RS4-11, 96 h, 4 days, Table 4, read-out: RS-4, 11 IC50. The protocol: as §1, §2

Regarding `Cc1nnc2n1-c1sc(C#CCOCCNc3cccc4c3C(=O)N(C3CCC(=O)NC3=O)C4=O)c(Cc3ccccc3)c1CO[C@H]2C` (stereo partly drawn) [Cpd. No. 1, 4-((2-((3-((S)-3-benzyl-6,9-dimethyl-4H,6H-thieno[2,3-e][1,2,4]triazolo[3,4-c][1,4]oxazepin-2-yl)prop-2-yn-1-yl)oxy)ethyl)amino)-2-(2,6-dioxopiperidin-3-yl) isoindoline-1,3-dione], the IC50 is 804 nM in the test with MOLM-13 and 1700 nM with MDA-MB-231.

For the molecule `Cc1nnc2n1-c1sc(C#CCOCCOCCOc3cccc4c3C(=O)N(C3CCC(=O)NC3=O)C4=O)c(Cc3ccccc3)c1CO[C@H]2C` (stereo partly drawn) [Cpd. No. 2, 4-(2-(2-((3-((S)-3-benzyl-6,9-dimethyl-4H,6H-thieno-[2,3-e][1,2,4]triazolo[3,4-c][1,4]oxazepin-2-yl)prop-2-yn-1-yl)oxy)ethoxy)ethoxy)-2-(2,6-dioxopiperidin-3-yl)isoindoline-1,3-dione], the values for the IC50 with MOLM-13 and with MDA-MB-231 were 34.6 nM and 223 nM, respectively.

As for `Cc1nnc2n1-c1sc(C#CCOCCOCCNc3cccc4c3C(=O)N(C3CCC(=O)NC3=O)C4=O)c(Cc3ccccc3)c1CO[C@H]2C` (stereo partly drawn) [Cpd. No. 3, 4-((2-(2-((3-((S)-3-benzyl-6,9-dimethyl-4H,6H-thieno[2,3-e][1,2,4]triazolo[3,4-c][1,4]oxazepin-2-yl)prop-2-yn-1-yl)oxy)ethoxy)ethyl)amino)-2-(2,6-dioxopiperidin-3-yl)isoindoline-1,3-dione], the IC50 turned out to be 2.6 nM with MOLM-13 and 49 nM with MDA-MB-231.

For `Cc1nnc2n1-c1sc(C#CCOCCOCCOCCNc3cccc4c3C(=O)N(C3CCC(=O)NC3=O)C4=O)c(Cc3ccccc3)c1CO[C@H]2C` (stereo partly drawn) [Cpd. No. 4, 4-((2-(2-(2-((3-((S)-3-benzyl-6,9-dimethyl-4H,6H-thieno[2,3-e][1,2,4]triazolo[3,4-c][1,4]oxazepin-2-yl)prop-2-yn-1-yl)oxy)ethoxy)ethoxy)ethyl)amino)-2-(2,6-dioxopiperidin-3-yl)isoindoline-1,3-dione], the figures for the IC50 in the test on MOLM-13 and with MDA-MB-231 were 0.8 nM and 12.8 nM, respectively.

As to `Cc1nnc2n1-c1sc(C#CCOCCOCCOCCOCCNc3cccc4c3C(=O)N(C3CCC(=O)NC3=O)C4=O)c(Cc3ccccc3)c1CO[C@H]2C` (stereo partly drawn) [Cpd. No. 5, 4-((15-((S)-3-benzyl-6,9-dimethyl-4H,6H-thieno[2,3-e][1,2,4]triazolo[3,4-c][1,4]oxazepin-2-yl)-3,6,9,12-tetraoxapentadec-14-yn-1-yl)amino)-2-(2,6-dioxopiperidin-3-yl)isoindoline-1,3-dione], the IC50 with MOLM-13 came to 0.7 nM; with MDA-MB-231, 6.1 nM.

Turning to `Cc1nnc2n1-c1sc(C#Cc3cnn(CCNc4cccc5c4C(=O)N(C4CCC(=O)NC4=O)C5=O)c3)c(Cc3ccccc3)c1CO[C@H]2C` (stereo partly drawn) [Cpd. No. 6, 4-((2-(4-(((S)-3-benzyl-6,9-dimethyl-4H,6H-thieno[2,3-e][1,2,4]triazolo[3,4-c][1,4]oxazepin-2-yl)ethynyl)-1H-pyrazol-1-yl)ethyl)amino)-2-(2,6-dioxopiperidin-3-yl)isoindoline-1,3-dione], the values for the IC50 in the test with MOLM-13 and in the test with MDA-MB-231 were 60 nM and 64 nM, respectively.

As to `Cc1nnc2n1-c1sc(C#Cc3ccc(CNc4cccc5c4C(=O)N(C4CCC(=O)NC4=O)C5=O)nc3)c(Cc3ccccc3)c1CO[C@H]2C` (stereo partly drawn) [Cpd. No. 8, 4-(((5-(((S)-3-benzyl-6,9-dimethyl-4H,6H-thieno[2,3-e][1,2,4]triazolo[3,4-c][1,4]oxazepin-2-yl)ethynyl)pyridin-2-yl)methyl)amino)-2-(2,6-dioxopiperidin-3-yl) isoindoline-1,3-dione], the figures for the IC50 with MOLM-13 and with MDA-MB-231 were 118 nM and 1490 nM, respectively.

`Cc1nnc2n1-c1sc(C#Cc3cnn(CCOCCNc4cccc5c4C(=O)N(C4CCC(=O)NC4=O)C5=O)c3)c(Cc3ccccc3)c1CO[C@H]2C` (stereo partly drawn) [Cpd. No. 9, 4-((2-(2-(4-(((S)-3-benzyl-6,9-dimethyl-4H,6H-thieno[2,3-e][1,2,4]triazolo[3,4-c][1,4]oxazepin-2-yl)ethynyl)-1H-pyrazol-1-yl)ethoxy)ethyl)amino)-2-(2,6-dioxopiperidin-3-yl)isoindoline-1,3-dione]: the figures for the IC50 with MOLM-13 and in the test on MDA-MB-231 were 1.1 nM and 4.7 nM, respectively.

With `Cc1nnc2n1-c1sc(C#Cc3cnn(CCCNc4cccc5c4C(=O)N(C4CCC(=O)NC4=O)C5=O)c3)c(Cc3ccccc3)c1CO[C@H]2C` (stereo partly drawn) [Cpd. No. 10, 4-((3-(4-(((S)-3-benzyl-6,9-dimethyl-4H,6H-thieno[2,3-e][1,2,4]triazolo[3,4-c][1,4]oxazepin-2-yl)ethynyl)-1H-pyrazol-1-yl)propyl)amino)-2-(2,6-dioxopiperidin-3-yl)isoindoline-1,3-dione], the IC50 in the test on MOLM-13 worked out at 2.6 nM; in the test with MDA-MB-231, 34 nM.

On to `Cc1nnc2n1-c1sc(C#Cc3cnc(CCCC#Cc4cccc5c4C(=O)N(C4CCC(=O)NC4=O)C5=O)[nH]3)c(Cc3ccccc3)c1CO[C@H]2C` (stereo partly drawn) [Cpd. No. 12, 4-(5-(5-(((S)-3-benzyl-6,9-dimethyl-4H,6H-thieno[2,3-e][1,2,4]triazolo[3,4-c][1,4]oxazepin-2-yl)ethynyl)-1H-imidazol-2-yl)pent-1-yn-1-yl)-2-(2,6-dioxopiperidin-3-yl)isoindoline-1,3-dione], for which the IC50 in the test with MOLM-13, in the test with MDA-MB-231 and in the test on RS4;11 was more than 1000 nM in each case.

Consider `Cc1nnc2n1-c1sc(C#Cc3cn(CCCCNc4cccc5c4CN(C4CCC(=O)NC4=O)C5=O)cn3)c(Cc3ccccc3)c1CO[C@H]2C` (stereo partly drawn) [Cpd. No. 13, 3-(4-((4-(4-(((S)-3-benzyl-6,9-dimethyl-4H,6H-thieno[2,3-e][1,2,4]triazolo[3,4-c][1,4]oxazepin-2-yl)ethynyl)-1H-imidazol-1-yl)butyl)amino)-1-oxoisoindolin-2-yl)piperidine-2,6-dione], for which the figures for the IC50 in the test on MOLM-13, in the test on MDA-MB-231 and in the test on RS4;11 were 20 nM, 58 nM and 1.8 nM, respectively.

On to `Cc1nnc2n1-c1sc(C#Cc3cnn(CCCC#Cc4cccc5c4C(=O)N(C4CCC(=O)NC4=O)C5=O)c3)c(Cc3ccccc3)c1CO[C@H]2C` (stereo partly drawn) [Cpd. No. 14, 4-(5-(4-(((S)-3-benzyl-6,9-dimethyl-4H,6H-thieno[2,3-e][1,2,4]triazolo[3,4-c][1,4]oxazepin-2-yl)ethynyl)-1H-pyrazol-1-yl)pent-1-yn-1-yl)-2-(2,6-dioxopiperidin-3-yl)isoindoline-1,3-dione], for which the IC50 in the test with MOLM-13 was determined as 8.7 nM; in the test with MDA-MB-231, 9.3 nM; in the test on RS4;11, 0.43 nM.

Turning to `Cc1nnc2n1-c1sc(C#Cc3cnc(CCCC#Cc4cccc5c4CN(C4CCC(=O)NC4=O)C5=O)n3C)c(Cc3ccccc3)c1CO[C@H]2C` (stereo partly drawn) [Cpd. No. 15, 3-(4-(5-(5-(((S)-3-benzyl-6,9-dimethyl-4H,6H-thieno[2,3-e][1,2,4]triazolo[3,4-c][1,4]oxazepin-2-yl)ethynyl)-1-methyl-1H-imidazol-2-yl)pent-1-yn-1-yl)-1-oxoisoindolin-2-yl)piperidine-2,6-dione], the IC50 was determined as 7.5 nM in the test with MOLM-13, 25 nM in the test with MDA-MB-231 and 0.2 nM with RS4;11.

Consider `Cc1nnc2n1-c1sc(C#Cc3cn(CCCC#Cc4cccc5c4CN(C4CCC(=O)NC4=O)C5=O)cn3)c(Cc3ccccc3)c1CO[C@H]2C` (stereo partly drawn) [Cpd. No. 20, 3-(4-(5-(4-(((S)-3-benzyl-6,9-dimethyl-4H,6H-thieno[2,3-e][1,2,4]triazolo[3,4-c][1,4]oxazepin-2-yl)ethynyl)-1H-imidazol-1-yl)pent-1-yn-1-yl)-1-oxoisoindolin-2-yl)piperidine-2,6-dione], for which the figures for the IC50 in the test on MOLM-13, in the test with MDA-MB-231 and with RS4;11 were 3.8 nM, 16 nM and 0.7 nM, respectively.

`Cc1nnc2n1-c1sc(C#Cc3cnn(CCCCOc4cccc5c4C(=O)N(C4CCC(=O)NC4=O)C5=O)c3)c(Cc3ccccc3)c1COC2` (stereo not drawn) [Cpd. No. 45, 4-(4-(4-((3-benzyl-9-methyl-4H,6H-thieno[2,3-e][1,2,4]triazolo[3,4-c][1,4]oxazepin-2-yl)ethynyl)-1H-pyrazol-1-yl)butoxy)-2-(2,6-dioxopiperidin-3-yl) isoindoline-1,3-dione]: the results for the IC50 in the test with MOLM-13, with MDA-MB-231 and in the test on RS4;11 were 3.2 nM, 3.2 nM and less than 0.1 nM, respectively.

Regarding `Cc1nnc2n1-c1sc(C#Cc3ccc(CCCCNc4cccc5c4CN(C4CCC(=O)NC4=O)C5=O)nc3)c(Cc3ccccc3)c1COC2` (stereo not drawn) [Cpd. No. 46, 3-(4-((4-(5-((3-benzyl-9-methyl-4H,6H-thieno[2,3-e][1,2,4]triazolo[3,4-c][1,4]oxazepin-2-yl)ethynyl)pyridin-2-yl)butyl)amino)-1-oxoisoindolin-2-yl) piperidine-2,6-dione], the IC50 in the test with MOLM-13 is 2.8 nM; in the test with MDA-MB-231 it was 2.4 nM; in the test on RS4;11, less than 0.1 nM.

For the molecule `Cc1nnc2n1-c1sc(C#Cc3ccc(CCCCNc4cc(F)cc5c4CN(C4CCC(=O)NC4=O)C5=O)nc3)c(Cc3ccccc3)c1COC2` (stereo not drawn) [Cpd. No. 47, 3-(4-((4-(5-((3-benzyl-9-methyl-4H,6H-thieno[2,3-e][1,2,4]triazolo[3,4-c][1,4]oxazepin-2-yl)ethynyl)pyridin-2-yl)butyl)amino)-6-fluoro-1-oxoisoindolin-2-yl)piperidine-2,6-dione], the IC50 is 1.8 nM with MOLM-13, 2.3 nM with MDA-MB-231 and less than 0.1 nM with RS4;11.
